The target in the test is T1, human Bradykinin B1 receptor (Homo sapiens, UniProt P46663).
T1 construct: host or cells: CHO-K1
T1 sequence (P46663 1-353): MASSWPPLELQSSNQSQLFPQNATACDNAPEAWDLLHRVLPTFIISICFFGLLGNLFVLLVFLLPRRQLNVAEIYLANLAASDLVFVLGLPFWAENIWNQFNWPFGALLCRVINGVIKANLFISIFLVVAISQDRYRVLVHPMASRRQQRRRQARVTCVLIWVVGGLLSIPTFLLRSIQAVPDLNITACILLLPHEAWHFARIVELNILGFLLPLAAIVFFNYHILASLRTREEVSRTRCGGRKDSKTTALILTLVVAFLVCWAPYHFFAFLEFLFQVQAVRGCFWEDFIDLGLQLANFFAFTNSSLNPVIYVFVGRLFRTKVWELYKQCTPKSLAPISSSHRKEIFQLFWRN
Description: Calcium flux Assay (FLIPR) with cells expressing human Bradykinin B1 receptor (hB1). The class given is cell-based. Conditions: absence of 0.1% BSA in assay buffer; CHO-K1 cell line expressing human B1 receptor; agonist Lys-(Des-Arg)-Bradykinin; read-out: hB1 free IC50. As to the method:
The potency to inhibit the Bradykinin B1 receptor was determined for the compound examples of this invention in a cell-based fluorescent calcium-mobilisation assay. The assay measures the ability of compound examples to inhibit Bradykinin B1 receptor agonist-induced increase of intracellular free Ca^2+ in the cell line expressing Bradykinin B1 receptor. Specifically, calcium indicator-loaded cells are pre-incubated in the absence or presence of different concentrations of compound examples followed by the stimulation with a selective Bradykinin B1 receptor agonist peptide. The change of the intracellular Ca^2+ concentration is monitored with a fluorescent plate reader FLIPR^TETRA®
Calcium flux Assays (FLIPR) with cells expressing human Bradykinin B1 receptor (hB1) Calcium flux Assay (FLIPR) with recombinant cells for Bradykinin B1 receptor antagonist, either in the presence (hB1 IC50) or absence (hB1 free IC50) of 0.1% Bovine Serum Albumin (BSA) in assay buffer.
CHO—K1 cell line expressing human B1 receptor was purchased from Euroscreen (Gosselies, Belgium, with reference name hB1-D1). The cells were grown in Nutrient Mixture Ham's F12 (Sigma) containing 10% Foetal bovine serum (Sigma) and 400 μg/mL G418 (Sigma), 5 μg/mL puromycin (Sigma).
For the calcium flux assay, 80% confluent cells were detached from the culture vessels with Versene (Gibco), and seeded into 384-well plates (Cell binding Surface; Corning, N.Y.; #3683) at a density of 15,000 cells per well. Cells were seeded in a volume of 50 μL in medium without antibiotics and incubated overnight in a humidified atmosphere with 5% CO2 at 37° C. […] The calcium indicator loaded cells were incubated at 37° C. for 2 hrs. Extracellular dye was then removed and each well was filled with 45 μL of assay buffer. Cell plates were kept in dark until used. Example compounds were assayed at 8 concentrations in triplicate. Serial 10-fold dilutions in 100% DMSO were made at a 100-times higher concentration than the final concentration, and then diluted 1:10 in assay buffer. 5 μL of each diluted compound was added to the well of cell plates (yielding final concentration with 1% DMSO), and incubated for 30 min at 28° C. before the addition of B1 receptor agonist on the FLIPR instrument.
Agonist plates contained the agonist Lys-(Des-Arg)-Bradykinin (Bachem, Brackley) at 3.5×EC90 in assay buffer with 1% DMSO. The addition of agonist 20 μl per well to the assay plate was carried out on the FLIPR instrument while continuously monitoring Ca^2+-dependent fluorescence at 538 nm. A peptide antagonist Lys-(Des-Arg-Leu)-Bradykinin (Bachem, Brackley) at 20 μM was used to determine the full inhibition as control.
Peak fluorescence was used to determine the response to agonist obtained at each concentration of example compound by the following equation:
% Response=100*(RFU(example compound)−RFU(control))/(RFU(DMSO)−RFU(control)) • RFU means relative fluorescence units. • Control means full inhibition by the peptide antagonist Lys-(Des-Arg-Leu)-Bradykinin at 20
The response values were plotted against the logarithm of the example compound concentrations. The example compounds were tested in triplicates per plate and mean values were plotted in Excel XLfit to determine IC50 values, percentage of maximal inhibition and the Hill slopes.
IC50 values of example compounds in Calcium flux Assay (FLIPR) as shown in table 1 were determined according to the protocol described above in the absence of 0.1% BSA in assay buffer.
For orientation: A change in cytosolic calcium serves as a functional read-out for many receptors and channels.

Each structure is given as a SMILES string.

For `CCC(C)OC(=O)c1ccc(NC(=O)C2(c3cccc(Cl)c3)CC2)cc1-c1nnn[nH]1` (racemic) [Example 3, sec-Butyl 4-({[1-(3-chlorophenyl)cyclopropyl]carbonyl}amino)-2-(1H-tetrazol-5-yl)benzoate], the IC50 – broadly, the concentration at which inhibition is half-maximal – was 10 nM. For the molecule `CCC(C)OC(=O)c1ccc(NC(=O)C2(c3ccc(F)c(F)c3)CC2)cc1-c1nnn[nH]1` (racemic) [Example 8, sec-Butyl 4-({[1-(3,4-difluorophenyl)cyclopropyl]carbonyl}amino)-2-(1H-tetrazol-5-yl)benzoate], the 50% inhibitory concentration (IC50) was determined as 21 nM. For `CCC(C)OC(=O)c1ccc(NC(=O)C2(c3ccc(C)cc3F)CC2)cc1-c1nnn[nH]1` (racemic) [Example 9, sec-Butyl 4-({[1-(2-fluoro-4-methylphenyl)cycloporopyl]carbonyl}amino)-2-(1H-tetrazol-5-yl)benzoate], the IC50 is 17 nM. With `CCC(C)OC(=O)c1ccc(NC(=O)C2(c3ccc(C(F)(F)F)cc3F)CC2)cc1-c1nnn[nH]1` (racemic) [Example 10, sec-Butyl 4-[({1-[2-fluoro-4-(trifluoromethyl)phenyl]cyclopropyl}carbonyl)amino]-2-(1H-tetrazol-5-yl)benzoate], the IC50 stood at 4 nM. As to `CCC(C)OC(=O)c1ccc(NC(=O)C2(c3ccc(OC(F)(F)F)cc3F)CC2)cc1-c1nnn[nH]1` (racemic) [Example 11, sec-Butyl 4-[({1-[2-fluoro-4-(trifluoromethoxy)phenyl]cyclopropyl}carbonyl)amino]-2-(1H-tetrazol-5-yl)benzoate], the IC50 is 3 nM. With `Cc1cccc([C@@H]2C[C@H]2C(=O)Nc2ccc(C(=O)OC3CCCC3)c(-c3nnn[nH]3)c2)c1` (racemic) [Example 13, Cyclopentyl-4-({[2-(3-methylphenyl)cyclopropyl]carbonyl}amino)-2-(1H-tetrazol-5-yl)benzoate], the IC50 came to 47 nM. For the molecule `O=C(OC1CCOC1)c1ccc(NC(=O)C2(c3ccc(C(F)(F)F)cc3F)CC2)cc1-c1nnn[nH]1` (racemic) [Example 18, Tetrahydrofuran-3-yl 4-[({1-[2-fluoro-4-(trifluoromethyl)phenyl]cyclopropyl}carbonyl)amino]-2-(1H-tetrazol-5-yl)benzoate], the IC50 worked out at 7 nM. On to `COC(C)COC(=O)c1ccc(NC(=O)C2(c3ccc(C(F)(F)F)cc3F)CC2)cc1-c1nnn[nH]1` (racemic) [Example 31, 2-Methoxypropyl 4-[({1-[2-fluoro-4-(trifluoromethyl)phenyl]cyclopropyl}carbonyl)amino]-2-(1H-tetrazol-5-yl)benzoate], for which the IC50 stood at 9 nM.

Regarding `COCC(C)OC(=O)c1ccc(NC(=O)C2(c3ccc(C(F)(F)F)cc3F)CC2)cc1-c1nnn[nH]1` (racemic) [Example 32, 1-Methoxypropan-2-yl 4-[({1-[2-fluoro-4-(trifluoromethyl)phenyl]cyclopropyl}carbonyl)amino]-2-(1H-tetrazol-5-yl)benzoate], the IC50 amounted to 13 nM. As to `COC1CCCN(C(=O)c2ccc(NC(=O)C3(c4ccc(C(F)(F)F)cc4F)CC3)cc2-c2nnn[nH]2)C1` (racemic) [Example 35, 1-[2-Fluoro-4-(trifluoromethyl)phenyl]-N-{4-[(3-methoxypiperidin-1-yl)carbonyl]-3-(1H-tetrazol-5-yl)phenyl}cyclopropanecarboxamide], the IC50 was 341 nM.

Consider `CCC(C)N(C)C(=O)c1ccc(NC(=O)C2(c3ccc(C(F)(F)F)cc3F)CC2)cc1-c1nnn[nH]1` (single isomer, unassigned) [Example 58, N-sec-butyl-4-[({1-[2-fluoro-4-(trifluoromethyl)phenyl]cyclopropyl}carbonyl)-amino]-N-methyl-2-(1H-tetrazol-5-yl)benzamide], for which the IC50 amounted to 1850 nM. Turning to `CCOC(=O)c1ccc(NC(=O)C2(c3cccc(Cl)c3)CC2)cc1-c1nnn[nH]1` [Example 1, Ethyl 4-({[1-(3-chlorophenyl)cyclopropyl]carbonyl}amino)-2-(1H-tetrazol-5-yl)benzoate], the 50% inhibitory concentration (IC50) was 136 nM.

With `O=C(OC1CCCC1)c1ccc(NC(=O)C2(c3cccc(Cl)c3)CC2)cc1-c1nnn[nH]1` [Example 2, Cyclopentyl 4-({[1-(3-chlorophenyl)cyclopropyl]carbonyl}amino)-2-(1H-tetrazol-5-yl)benzoate], the IC50 came to 21 nM. For `O=C(OC1CCCC1)c1ccc(NC(=O)C2(c3ccc(F)c(F)c3)CC2)cc1-c1nnn[nH]1` [Example 4, Cyclopentyl 4-({[1-(3,4-difluorophenyl)cyclopropyl]carbonyl}amino)-2-(1H-tetrazol-5-yl)benzoate], the IC50 turned out to be 59 nM.

Turning to `Cc1ccc(C2(C(=O)Nc3ccc(C(=O)OC4CCCC4)c(-c4nnn[nH]4)c3)CC2)c(F)c1` [Example 5, Cyclopentyl 4-({[1-(2-fluoro-4-methylphenyl)cyclopropyl]carbonyl}amino)-2-(1H-tetrazol-5-yl)benzoate], the concentration for half-maximal inhibition (IC50) was found to be 25 nM. In the case of `O=C(OC1CCCC1)c1ccc(NC(=O)C2(c3ccc(C(F)(F)F)cc3F)CC2)cc1-c1nnn[nH]1` [Example 6, Cyclopentyl 4-[({1-[2-fluoro-4-(trifluoromethyl)phenyl]cyclopropyl}carbonyl)amino]-2-(1H-tetrazol-5-yl)benzoate], the IC50 was 9 nM. `O=C(OC1CCCC1)c1ccc(NC(=O)C2(c3ccc(OC(F)(F)F)cc3F)CC2)cc1-c1nnn[nH]1` [Example 7, Cyclopentyl 4-[({1-[2-fluoro-4-(trifluoromethoxy)phenyl]cyclopropyl}carbonyl)amino]-2-(1H-tetrazol-5-yl)benzoate]: the half-inhibitory concentration (IC50) was 5 nM. With `CN(CC1CCCCC1)C(=O)c1ccc(NC(=O)C2(c3ccc(C(F)(F)F)cc3F)CC2)cc1-c1nnn[nH]1` [Example 12, N-(cyclohexylmethyl)-4-[({1-[2-fluoro-4-(trifluoromethyl)phenyl]cyclopropyl}carbonyl)amino]-N-methyl-2-(1H-tetrazol-5-yl)benzamide] the figure was 412 nM; with `CC1(OC(=O)c2ccc(NC(=O)C3(c4ccc(C(F)(F)F)cc4F)CC3)cc2-c2nnn[nH]2)CCCC1` [Example 14, 1-Methylcyclopentyl 4-[({1-[2-fluoro-4-(trifluoromethyl)phenyl]cyclopropyl}-carbonyl)amino]-2-(1H-tetrazol-5-yl)benzoate], 999 nM; with `CCC(C)(C)OC(=O)c1ccc(NC(=O)C2(c3ccc(C(F)(F)F)cc3F)CC2)cc1-c1nnn[nH]1` [Example 15, 2-Methylbutan-2-yl 4-[({1-[2-fluoro-4-(trifluoromethyl)phenyl]cyclopropyl}carbonyl)amino]-2-(1H-tetrazol-5-yl)benzoate], 5220 nM. Then `O=C(OC1CCCCC1)c1ccc(NC(=O)C2(c3ccc(C(F)(F)F)cc3F)CC2)cc1-c1nnn[nH]1` [Example 16, Cyclohexyl 4-[({1-[2-fluoro-4-(trifluoromethyl)phenyl]cyclopropyl}carbonyl)amino]-2-(1H-tetrazol-5-yl)benzoate], with 5 nM; and `COCCOC(=O)c1ccc(NC(=O)C2(c3ccc(C(F)(F)F)cc3F)CC2)cc1-c1nnn[nH]1` [Example 17, 2-Methoxyethyl 4-[({1-[2-fluoro-4-(trifluoromethyl)phenyl]cyclopropyl}-carbonyl)amino]-2-(1H-tetrazol-5-yl)benzoate], with 17 nM.

The record behind these values is US20190177284A1, “TETRAZOLYL-CONTAINING CYCLOPROPANECARBOXAMIDES” (Bayer Pharma Aktiengesellschaft, priority 2017, published 2019).
